# Measured values: patent US8192962B2, “Processes for detecting toxic substances” (Daikin Industries, Ltd., priority 2001, dated 2012)
# Test system: Metabolism protein genes
# Test: DNA chip mRNA expression in yeast, metabolism protein genes (Table 7)
# Assay type: cell-based, Saccharomyces cerevisiae S288C
# How it was run: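 Whole-genome yeast DNA chip hybridization (65° C., >12 h) of Cy-labeled cDNA from S288C cells exposed 2 h at 25° C. to a sub-lethal toxicant dose in YPD; value is intensity relative to chemical-free control.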
smiles,measurement,setting,value
"CN(C)C(=S)SSC(=S)N(C)C [(10), Tetramethylthiuram disulfide]",level of expressed mRNA in the presence/in the absence of chemical substance,yeast gene YJR143C,0.3
same,The level of expressed mRNA in the presence of chemical substance/The level of expressed mRNA in the absence of chemical substance,yeast gene YJR148W,3.0
same,The level of expressed mRNA in the presence of chemical substance/The level of expressed mRNA in the absence of chemical substance,yeast gene YJR155W,18.8
same,The level of expressed mRNA in the presence of chemical substance/The level of expressed mRNA in the absence of chemical substance,yeast gene YKL001C,3.4
same,The level of expressed mRNA in the presence of chemical substance/The level of expressed mRNA in the absence of chemical substance,yeast gene YKL035W,1.2
same,level of expressed mRNA in the presence/in the absence of chemical substance,yeast gene YKL060C,0.8
same,The level of expressed mRNA in the presence of chemical substance/The level of expressed mRNA in the absence of chemical substance,yeast gene YKL091C,3.2
same,The level of expressed mRNA in the presence of chemical substance/The level of expressed mRNA in the absence of chemical substance,yeast gene YKL104C,1.8
same,level of expressed mRNA in the presence/in the absence of chemical substance,yeast gene YKL148C,1.7
same,The level of expressed mRNA in the presence of chemical substance/The level of expressed mRNA in the absence of chemical substance,yeast gene YKL152C,1.5
same,level of expressed mRNA in the presence/in the absence of chemical substance,yeast gene YKL157W,1.9
same,The level of expressed mRNA in the presence of chemical substance/The level of expressed mRNA in the absence of chemical substance,yeast gene YKL213C,2.1
same,The level of expressed mRNA in the presence of chemical substance/The level of expressed mRNA in the absence of chemical substance,yeast gene YKL215C,1.9
same,level of expressed mRNA in the presence/in the absence of chemical substance,yeast gene YKR034W,0.6
same,The level of expressed mRNA in the presence of chemical substance/The level of expressed mRNA in the absence of chemical substance,yeast gene YKR039W,2.0
same,The level of expressed mRNA in the presence of chemical substance/The level of expressed mRNA in the absence of chemical substance,yeast gene YLL058W,3.6
same,level of expressed mRNA in the presence/in the absence of chemical substance,yeast gene YLR006C,1.1
same,level of expressed mRNA in the presence/in the absence of chemical substance,yeast gene YLR044C,1.2
same,level of expressed mRNA in the presence/in the absence of chemical substance,yeast gene YLR056W,0.5
same,level of expressed mRNA in the presence/in the absence of chemical substance,yeast gene YLR058C,0.1
same,level of expressed mRNA in the presence/in the absence of chemical substance,yeast gene YLR081W,2.2
same,level of expressed mRNA in the presence/in the absence of chemical substance,yeast gene YLR089C,0.8
same,The level of expressed mRNA in the presence of chemical substance/The level of expressed mRNA in the absence of chemical substance,yeast gene YLR180W,0.9
same,The level of expressed mRNA in the presence of chemical substance/The level of expressed mRNA in the absence of chemical substance,yeast gene YLR273C,2.4
same,level of expressed mRNA in the presence/in the absence of chemical substance,yeast gene YLR284C,0.9
same,The level of expressed mRNA in the presence of chemical substance/The level of expressed mRNA in the absence of chemical substance,yeast gene YLR299W,2.3
same,The level of expressed mRNA in the presence of chemical substance/The level of expressed mRNA in the absence of chemical substance,yeast gene YLR300W,0.5
same,level of expressed mRNA in the presence/in the absence of chemical substance,yeast gene YLR304C,2.2
same,The level of expressed mRNA in the presence of chemical substance/The level of expressed mRNA in the absence of chemical substance,yeast gene YLR307W,0.7
same,The level of expressed mRNA in the presence of chemical substance/The level of expressed mRNA in the absence of chemical substance,yeast gene YLR348C,1.3
same,level of expressed mRNA in the presence/in the absence of chemical substance,yeast gene YLR354C,0.9
same,level of expressed mRNA in the presence/in the absence of chemical substance,yeast gene YLR372W,0.1
same,level of expressed mRNA in the presence/in the absence of chemical substance,yeast gene YML022W,0.6
same,The level of expressed mRNA in the presence of chemical substance/The level of expressed mRNA in the absence of chemical substance,yeast gene YML054C,1.8
same,The level of expressed mRNA in the presence of chemical substance/The level of expressed mRNA in the absence of chemical substance,yeast gene YML070W,3.9
same,The level of expressed mRNA in the presence of chemical substance/The level of expressed mRNA in the absence of chemical substance,yeast gene YML100W,1.4
same,The level of expressed mRNA in the presence of chemical substance/The level of expressed mRNA in the absence of chemical substance,yeast gene YMR008C,0.6
same,level of expressed mRNA in the presence/in the absence of chemical substance,yeast gene YMR011W,0.7
same,level of expressed mRNA in the presence/in the absence of chemical substance,yeast gene YMR015C,0.3
same,The level of expressed mRNA in the presence of chemical substance/The level of expressed mRNA in the absence of chemical substance,yeast gene YMR020W,2.9
same,level of expressed mRNA in the presence/in the absence of chemical substance,yeast gene YMR083W,1.1
same,The level of expressed mRNA in the presence of chemical substance/The level of expressed mRNA in the absence of chemical substance,yeast gene YMR105C,2.9
same,The level of expressed mRNA in the presence of chemical substance/The level of expressed mRNA in the absence of chemical substance,yeast gene YMR189W,0.9
same,level of expressed mRNA in the presence/in the absence of chemical substance,yeast gene YMR205C,0.8
same,level of expressed mRNA in the presence/in the absence of chemical substance,yeast gene YMR261C,1.3
same,The level of expressed mRNA in the presence of chemical substance/The level of expressed mRNA in the absence of chemical substance,yeast gene YMR271C,4.4
same,The level of expressed mRNA in the presence of chemical substance/The level of expressed mRNA in the absence of chemical substance,yeast gene YMR296C,0.6
same,level of expressed mRNA in the presence/in the absence of chemical substance,yeast gene YMR323W,1.3
same,The level of expressed mRNA in the presence of chemical substance/The level of expressed mRNA in the absence of chemical substance,yeast gene YNL012W,3.2
same,level of expressed mRNA in the presence/in the absence of chemical substance,yeast gene YNL025C,1.8
same,The level of expressed mRNA in the presence of chemical substance/The level of expressed mRNA in the absence of chemical substance,yeast gene YNL037C,3.2
same,The level of expressed mRNA in the presence of chemical substance/The level of expressed mRNA in the absence of chemical substance,yeast gene YNL045W,1.1
same,The level of expressed mRNA in the presence of chemical substance/The level of expressed mRNA in the absence of chemical substance,yeast gene YNL104C,2.0
same,The level of expressed mRNA in the presence of chemical substance/The level of expressed mRNA in the absence of chemical substance,yeast gene YNL106C,1.4
same,The level of expressed mRNA in the presence of chemical substance/The level of expressed mRNA in the absence of chemical substance,yeast gene YNL169C,1.1
same,level of expressed mRNA in the presence/in the absence of chemical substance,yeast gene YNL192W,1.8
same,The level of expressed mRNA in the presence of chemical substance/The level of expressed mRNA in the absence of chemical substance,yeast gene YNL231C,1.3
same,The level of expressed mRNA in the presence of chemical substance/The level of expressed mRNA in the absence of chemical substance,yeast gene YNL322C,0.8
same,The level of expressed mRNA in the presence of chemical substance/The level of expressed mRNA in the absence of chemical substance,yeast gene YNL331C,36.3
same,The level of expressed mRNA in the presence of chemical substance/The level of expressed mRNA in the absence of chemical substance,yeast gene YNL332W,2.1
same,The level of expressed mRNA in the presence of chemical substance/The level of expressed mRNA in the absence of chemical substance,yeast gene YNR002C,1.6
same,The level of expressed mRNA in the presence of chemical substance/The level of expressed mRNA in the absence of chemical substance,yeast gene YNR019W,1.9
same,The level of expressed mRNA in the presence of chemical substance/The level of expressed mRNA in the absence of chemical substance,yeast gene YNR033W,4.2
same,The level of expressed mRNA in the presence of chemical substance/The level of expressed mRNA in the absence of chemical substance,yeast gene YNR059W,1.4
same,The level of expressed mRNA in the presence of chemical substance/The level of expressed mRNA in the absence of chemical substance,yeast gene YOL058W,15.7
same,level of expressed mRNA in the presence/in the absence of chemical substance,yeast gene YOL086C,1.2
same,level of expressed mRNA in the presence/in the absence of chemical substance,yeast gene YOL108C,0.9
same,level of expressed mRNA in the presence/in the absence of chemical substance,yeast gene YOL116W,1.8
same,The level of expressed mRNA in the presence of chemical substance/The level of expressed mRNA in the absence of chemical substance,yeast gene YOL126C,2.4
same,The level of expressed mRNA in the presence of chemical substance/The level of expressed mRNA in the absence of chemical substance,yeast gene YOL143C,1.0
same,The level of expressed mRNA in the presence of chemical substance/The level of expressed mRNA in the absence of chemical substance,yeast gene YOL153C,3.2
same,level of expressed mRNA in the presence/in the absence of chemical substance,yeast gene YOL156W,2.1
same,The level of expressed mRNA in the presence of chemical substance/The level of expressed mRNA in the absence of chemical substance,yeast gene YOL165C,23.3
same,level of expressed mRNA in the presence/in the absence of chemical substance,yeast gene YOR002W,0.9
same,level of expressed mRNA in the presence/in the absence of chemical substance,yeast gene YOR085W,0.6
same,The level of expressed mRNA in the presence of chemical substance/The level of expressed mRNA in the absence of chemical substance,yeast gene YOR099W,0.7
same,level of expressed mRNA in the presence/in the absence of chemical substance,yeast gene YOR103C,0.9
same,level of expressed mRNA in the presence/in the absence of chemical substance,yeast gene YOR108W,1.1
same,level of expressed mRNA in the presence/in the absence of chemical substance,yeast gene YOR128C,0.4
same,The level of expressed mRNA in the presence of chemical substance/The level of expressed mRNA in the absence of chemical substance,yeast gene YOR130C,1.7
same,The level of expressed mRNA in the presence of chemical substance/The level of expressed mRNA in the absence of chemical substance,yeast gene YOR136W,3.4
same,level of expressed mRNA in the presence/in the absence of chemical substance,yeast gene YOR142W,1.5
same,level of expressed mRNA in the presence/in the absence of chemical substance,yeast gene YOR176W,0.5
same,level of expressed mRNA in the presence/in the absence of chemical substance,yeast gene YOR178C,1.7
same,The level of expressed mRNA in the presence of chemical substance/The level of expressed mRNA in the absence of chemical substance,yeast gene YOR221C,1.7
same,The level of expressed mRNA in the presence of chemical substance/The level of expressed mRNA in the absence of chemical substance,yeast gene YOR226C,5.9
same,level of expressed mRNA in the presence/in the absence of chemical substance,yeast gene YOR251C,0.8
same,The level of expressed mRNA in the presence of chemical substance/The level of expressed mRNA in the absence of chemical substance,yeast gene YOR336W,1.5
same,The level of expressed mRNA in the presence of chemical substance/The level of expressed mRNA in the absence of chemical substance,yeast gene YOR347C,0.9
same,level of expressed mRNA in the presence/in the absence of chemical substance,yeast gene YOR348C,0.4
same,The level of expressed mRNA in the presence of chemical substance/The level of expressed mRNA in the absence of chemical substance,yeast gene YPL017C,6.7
same,level of expressed mRNA in the presence/in the absence of chemical substance,yeast gene YPL028W,0.8
same,level of expressed mRNA in the presence/in the absence of chemical substance,yeast gene YPL057C,1.4
same,level of expressed mRNA in the presence/in the absence of chemical substance,yeast gene YPL135W,2.8
same,level of expressed mRNA in the presence/in the absence of chemical substance,yeast gene YPL148C,1.5
same,The level of expressed mRNA in the presence of chemical substance/The level of expressed mRNA in the absence of chemical substance,yeast gene YPR026W,3.1
same,level of expressed mRNA in the presence/in the absence of chemical substance,yeast gene YPR113W,0.8
same,level of expressed mRNA in the presence/in the absence of chemical substance,yeast gene YPR165W,0.7
same,The level of expressed mRNA in the presence of chemical substance/The level of expressed mRNA in the absence of chemical substance,yeast gene YPR167C,9.0
same,level of expressed mRNA in the presence/in the absence of chemical substance,yeast gene YPR183W,0.6
